Experimental data reported in PMC7459852, “Identification of 6-(piperazin-1-yl)-1,3,5-triazine as a chemical scaffold with broad anti-schistosomal activities” (Wellcome Open Research, 2020).
Read-outs that look alike come from different tables or passages of the source.

How the values were obtained:
S. mansoni adult worms [1] = assay: Adult worm screens (WormassayGP2 motility, egg count); type: cell-based; details: Schistosoma mansoni, two dose response titrations (100 – 3.13 µM)
S. mansoni adult worms [2] = assay: as above; type: cell-based, Schistosoma mansoni; details: 72 h
Protocol: For compound screening, adult worms (three worm pairs/well for compound 7 and the hit compounds of set two; one worm pair/well for the hit compounds of set three) were transferred into wells of a 48-well tissue culture plate containing 1 ml of adult worm media. Adult worms were treated with compounds previously identified as hits at 10 µM on 72 h cultured schistosomula. Worms were dosed with an appropriate volume of 10 mM stock solution of each compound (in DMSO) to have a concentration range of 50 – 6.25 µM (up to 0.5% DMSO, primary screen of compound 7). Secondary screens were performed on the structural analogues of compound 7 (only the schistosomula hits at 10 µM) at a single concentration (12.5 µM) and compared to the same concentration of the parental compound (included in the screen as reference). DMSO (0.5%) and praziquantel (10 µM in 0.5% DMSO) were also included as negative and positive control treatments (both primary and secondary screens). Treated adult worms were incubated for 72 h in a humidified environment at 5% CO 2 at 37°C. Parasite motility after drug treatment was assessed by a digital image processing-based system (WormassayGP2, see Software availability) modified after Wormassay, [56], [57]. Egg production was assessed according to the methodology described by Edwards et al..

S. mansoni miracidia = assay: Miracidia to sporocyst transformation screens; type: cell-based, Schistosoma mansoni; details: 48 h
Protocol: Following hatching of S. mansoni eggs, miracidia were incubated on ice for 15 min and then centrifuged at 700 x g for 5 min at 4°C. The miracidia pellet was then re-suspended in 5 ml of Chernin's balanced salt solution (CBSS), subjected to pelleting and two subsequent washes (all at 700 x g for 5 min at 4°C). Afterwards, the supernatant was carefully removed with a serological pipette and the miracidia-enriched pellet was resuspended with CBSS supplemented with 1 mg/ml each of glucose and trehalose and 500 µl of Penicillin-Streptomycin (containing 10,000 units penicillin and 10 mg streptomycin/ml, P4333, Sigma-Aldrich). In preparation for the screens, CBSS (250 µl) was aliquoted to each well of a 24-well plate followed by addition of each compound in DMSO (1 mM concentration in 1% DMSO) or DMSO alone (1%, negative control). Next, approximately 20-25 miracidia (in 250 µl of CBSS) were aliquoted to each well. […] Both preliminary and secondary screens were performed in duplicate on two separate occasions (two independent biological replicates). Miracidia were incubated for 48 h at 26°C before being evaluated using an Olympus inverted light microscope for morphological and behavioural changes differing from the control wells. Dead, partially transformed and fully transformed miracidia were enumerated in the DMSO control and the assay plates as previously described, [23], [59]. […] Absence of ciliated plates attached to the surface of the parasite and formation of sporocyst tegument defined the so-called “fully transformed” parasites.

S. mansoni adult worms [3] = assay: Scanning electron microscopy of compound damage on adult worms; type: cell-based, Schistosoma mansoni; details: 12.50 µM (sub-lethal), 72 h
Protocol: Following 72 h of drug treatment, the cultured S. mansoni adult worms were collected, separated by sex and relaxed with tricaine anaesthetic solution (0.25% w/v of ethyl 3-aminobenzoate methane sulfonate - Tricaine, E10521, Sigma Aldrich - in DMEM). The samples were incubated by gently rocking for 15 min or until parasites relaxed and separated. The parasites were then killed by incubation in a solution of […] magnesium chloride (MgCl 2) for 1 min. Afterwards, adult schistosome worms were briefly washed with pre-warmed 1X PBS and then fixed using appropriate solutions for analysis by scanning electron microscopy (SEM) as previously described in literature, [61], [62].
Post fixation, adult schistosomes were stored at 4°C until washing with 0.1 M sodium cacodylate was performed (2 x 30 min each). The worms were then stained with 1% v/v osmium tetroxide water solution (stored at -20°C and pre-warmed at room temperature prior to use) for 2 h and then washed with 0.1 M sodium cacodylate for 30 min. Following staining, worms were dehydrated with an aqueous alcohol series (30, 50, 70, 95 and 100% ethanol in ultra-pure water) by agitating gently on a rocker for 30 min per solution. At the final step, the samples were left in 100% ethanol overnight before being dried with hexamethyldisilazane critical drying point agent (AGR1228, Agar Scientific, Stansted, UK) for at least 3 h. […]

S. mansoni schistosomula = assay: Schistosomula screens (Roboworm, phenotype and motility); type: cell-based, Schistosoma mansoni; details: 72 h
Protocol: Anthelmintic activity on the schistosomula stage of S. mansoni was evaluated using Roboworm, an integrated high-throughput, high content image analysis platform originally developed by Paveley et al. and subsequently used by our research group as previously described, [28], [50], [51]. Alternatively, the computer application Worminator can be used to assess motion of microscopic parasites such as the schistosomula stage of S. mansoni. Compounds (as single concentration or two-fold titrations) were prepared for screening in a 384-well plate (PerkinElmer, MA, USA), where solutions (1.6 mM, 0.5 μl) were wet stamped using the Biomek NX ^P liquid handling platform into Basch medium (20 μl). Negative (0.625% DMSO) and positive (Auranofin - AUR - at 10 µM final concentration in 0.625% DMSO) control wells were similarly prepared. Mechanically transformed schistosomula (about 120 parasites in 60 μl of Basch medium) were distributed into each treated well using a WellMate (Thermo Scientific, Loughborough, UK). Schistosomula/compound co-cultures were then incubated at 37°C for 72 h in a humidified atmosphere containing 5% CO 2. At 72 h, parasite/compound co-cultures were resuspended and tissue culture plates were imaged under the same conditions (37°C for 72 h in a humidified atmosphere containing 5% CO 2) using an ImageXpressXL high content imager (Molecular Devices, UK) with subsequent images processed for phenotype and motility as previously reported. Plate analysis returned a phenotype and motility score for each well and any scores below -0.15 and -0.35 (defined threshold anti-schistosomula values for phenotype and motility scores, respectively) defined a condition displaying anti-schistosomula activity. Compound screens were assessed based on the Z´ values (derived from the means and standard deviations of positive and negative controls) and those equal to or above 0.3 for both phenotype and motility were considered successful.
Phenotype and motility scores of each titration were used to generate dose response curves in GraphPad Prism 7.02 based on the corrected average score of the three replicates for each data point.

`c1ccc(Nc2nc(N3CCCC3)nc(N3CCNCC3)n2)cc1` [Compound 7] was tested, and the EC50 (S. mansoni adult worms [1]) was 11 µM, the “effect on adult worms (motility)” value (S. mansoni adult worms [2]; 12.50 and 6.25 µM) was “worm recovery began at 12.50 µM and remained at 6.25 µM” and the “effect on adult worms (motility)” value (S. mansoni adult worms [2]; 50 and 25 µM) was “lethal effect”. The “egg production (worm fecundity)” value (S. mansoni adult worms [2]; titration 50 - 6.25 µM, effect up to and including 12.50 µM) was “particularly effective in inhibiting worm fecundity”, the “inhibition of miracidia transformation” value (S. mansoni miracidia; 5, 2 and 0.5 µM) was 20–25% and the effect on miracidia (S. mansoni miracidia; 50 and 25 µM) was “completely lethal”. The inhibition at 10 µM (S. mansoni miracidia; Schistosoma mansoni, 10 µM) was 45%, the “morphological changes of adult worms by SEM” value (S. mansoni adult worms [3]) was “partial loss of tubercles and spines as well as tegument erosion” and the “anti-schistosomula activity (hit on phenotype and motility)” value (S. mansoni schistosomula; 10 µM) was “remaining active”. For the same compound, the “anti-schistosomula activity (hit on phenotype and motility)” value (S. mansoni schistosomula; 50 µM) was “showed anti-schistosomal activity”, the EC50 (S. mansoni schistosomula; Schistosoma mansoni, average of phenotype and motility metrics, read-out: Schistosomula EC50 Average) was 5.54 µM and the EC50 (S. mansoni schistosomula; Schistosoma mansoni, dose response titrations (10 - 0.625 µM), read-out: Schistosomula EC50 Motility) was 5.03 µM. The EC50 (S. mansoni schistosomula; Schistosoma mansoni, dose response titrations (10 - 0.625 µM), read-out: Schistosomula EC50 Phenotype) was 5.65 µM, the EC50 (S. mansoni schistosomula; average of phenotype and motility metrics, read-out: Schistosomula EC50 Average) was 5.34 µM and the schistosomula phenotype induced (S. mansoni schistosomula; both 50 and 10 µM) was “swollen with some individuals additionally displaying posterior end compression”.
